Test results taken from patent US8952159B2, “Method for the production of amorphous rifaximin” (priority 2009, dated 2015).
≈ marks a conversion by molar mass, not a printed value.

Test: Comparative test of solubility in water of different forms of rifaximin (spectrophotometric, absorbance at 450.50 nm)
Type: physicochemical
Settings: suspension in deionized water, constant stirring; for Solubility in water: 25° C.
Method: The solubility in water of different forms of rifaximin was evaluated by means of spectrophotometric method, by performing the analyses on a Lambda10 (Perkin Elmer) apparatus. The tests were performed at room temperature in demineralized water according to the following methodology. 1 g of commercial rifaximin (identified as form γ by X diffractometry) was dried in thermogravimetric apparatus at 105° C. until constant weight. 50.3 mg of the dried powder were weighed and brought in solution with deionized water in 2-L calibrated flask (solution 1). Under these conditions rifaximin was fully dissolved. On a portion of the obtained solution the spectral scanning was performed in the range of wavelengths comprised between 190 and 800 nm, by using as white deionized water. The obtained absorption spectrum points out an isolated maximum at 450.50 nm and such wavelength was used for the analytical measures. The calibration straight line was obtained by dilution of portions of the solution 1, thus obtaining the solution 2 (dilution 1:2.5), the solution 3 (1:10), the solution 4 (1:20) and the solution 5 (1:50). The straight line resulted to follow the Lambert-Beer law, showing linearity in the concentration range of the five measured reference solutions. For the tests for comparing the solubilities of the different forms, the absorbance of samples obtained from rifaximin suspensions in water excess subjected to constant stirring at 25° C. was measured. After drying at 105° C. until weight constancy, quantities properly weighed of the samples under examination (for a value of about 15 mg) were placed in becker under magnetic stirring, at 25° C. with 80 ml of deionized water. Measures on different samples obtained according to the methodologies reported in the examples 8 and 13 (defined full amorphous), on amorphous ones obtained as described in the examples 1 and 5 (with two halos) and compared to those of commercially available rifaximin, verified as form γ. In different periods of time comprised between 0.5 and 180 minutes, about 2-ml collections were performed, placed in test tube, having the prudence of preventing the collection of the suspended solid by means of filtration with filters for HPLC with porosity 0.2 μm. 0.3 ml of the collected solution were read at the UV by measuring the absorbance 450.50 nm. The samples with higher concentration, with absorbances so as to fall out of the range of the calibration straight line, were diluted until going back to the calibration range. Each experimental point consisted in 3 measures, the values thereof, coincident within 5% of error, were mediated. The concentrations are expressed in grams/liter.

Compound	solubility at 1 min (deionized water, 25 °C, water, thermodynamic from solid, time 1 min) [µg/mL]	Solubility in water (time 0.5 min) [µg/mL]	Solubility in water (time 2 min) [µg/mL]	Solubility in water (time 5 min) [µg/mL]	Solubility in water (time 10 min) [µg/mL]	Solubility in water (time 30 min) [µg/mL]	Solubility in water (time 60 min) [µg/mL]	Solubility in water (time 120 min) [µg/mL]	Solubility in water (time 180 min) [µg/mL]	solubility at 120 min (deionized water, 25 °C, water, thermodynamic from solid, time 120 min) [µg/mL]
CO[C@H]1/C=C/O[C@@]2(C)Oc3c(C)c(O)c4c(O)c(c5c(nc6cc(C)ccn65)c4c3C2=O)NC(=O)/C(C)=C\C=C\[C@H](C)[C@H](O)[C@@H](C)[C@@H](O)[C@@H](C)[C@H](OC(C)=O)[C@@H]1C [form γ, rifaximin]	5.4 (≈ 6.87 µM)	2.7 (≈ 3.44 µM)	5.9 (≈ 7.51 µM)	8.2 (≈ 10.4 µM)	15 (≈ 19.1 µM)	23 (≈ 29.3 µM)	37 (≈ 47.1 µM)	43 (≈ 54.7 µM)	42 (≈ 53.4 µM)	–
CO[C@H]1/C=C/O[C@@]2(C)Oc3c(C)c(O)c4c(O)c(c5c(nc6cc(C)ccn65)c4c3C2=O)NC(=O)/C(C)=C\C=C\[C@H](C)[C@H](O)[C@@H](C)[C@@H](O)[C@@H](C)[C@H](OC(C)=O)[C@@H]1C [example 8, rifaximin]	–	3.3 (≈ 4.2 µM)	13 (≈ 16.5 µM)	29 (≈ 36.9 µM)	51 (≈ 64.9 µM)	76 (≈ 96.7 µM)	82 (≈ 104 µM)	–	86.4 (≈ 110 µM)	85 (≈ 108 µM)
CO[C@H]1/C=C/O[C@@]2(C)Oc3c(C)c(O)c4c(O)c(c5c(nc6cc(C)ccn65)c4c3C2=O)NC(=O)/C(C)=C\C=C\[C@H](C)[C@H](O)[C@@H](C)[C@@H](O)[C@@H](C)[C@H](OC(C)=O)[C@@H]1C [example 5, rifaximin]	–	–	–	7.1 (≈ 9.03 µM)	15 (≈ 19.1 µM)	27 (≈ 34.4 µM)	37 (≈ 47.1 µM)	44 (≈ 56 µM)	46 (≈ 58.5 µM)	–
CO[C@H]1/C=C/O[C@@]2(C)Oc3c(C)c(O)c4c(O)c(c5c(nc6cc(C)ccn65)c4c3C2=O)NC(=O)/C(C)=C\C=C\[C@H](C)[C@H](O)[C@@H](C)[C@@H](O)[C@@H](C)[C@H](OC(C)=O)[C@@H]1C [example 13, rifaximin]	–	–	–	31 (≈ 39.4 µM)	55 (≈ 70 µM)	72 (≈ 91.6 µM)	81 (≈ 103 µM)	86 (≈ 109 µM)	89 (≈ 113 µM)	–
CO[C@H]1/C=C/O[C@@]2(C)Oc3c(C)c(O)c4c(O)c(c5c(nc6cc(C)ccn65)c4c3C2=O)NC(=O)/C(C)=C\C=C\[C@H](C)[C@H](O)[C@@H](C)[C@@H](O)[C@@H](C)[C@H](OC(C)=O)[C@@H]1C [example 1, rifaximin]	–	1.11 (≈ 1.41 µM)	5.1 (≈ 6.49 µM)	6.9 (≈ 8.78 µM)	14 (≈ 17.8 µM)	25 (≈ 31.8 µM)	36 (≈ 45.8 µM)	46 (≈ 58.5 µM)	45 (≈ 57.3 µM)	–
